Test results from ChEMBL document CHEMBL5634148, “Synthesis and evaluation of novel pleuromutilin derivatives targeting the 50S ribosomal subunit for antibacterial ability” (Eur J Med Chem, 2023).
≈ marks a conversion by molar mass, not a printed value. Calls of active or inactive are those of the source. No cut-off for these calls is given here.

Assays:
[1] = Toxicity in Wistar rat assessed as body weight loss at 2000 mg/kg, po measured for 14 days; assay type: organism-based; conditions: in vivo, 336 h, time 14 day
[2] = Toxicity in Wistar rat assessed as absolute uterus weight at 2000 mg/kg, po measured after 14 days (reference value: 0.87 +/- 0.06 g); assay type: organism-based; conditions: in vivo, 336 h, time 14 day
[3] = Toxicity in Wistar rat assessed as relative spleen weight at 2000 mg/kg, po measured after 14 days (reference value: 0.20 +/- 0.07 %); assay type: organism-based; conditions: in vivo, 336 h, time 14 day
[4] = Toxicity in Wistar rat assessed as physical activity at 2000 mg/kg, po measured for 48 hrs; assay type: organism-based; conditions: in vivo
Staphylococcus aureus [5] = assay: Antibacterial activity against methicillin-resistant Staphylococcus aureus infected in neutropenic Balb/c mouse model assessed as thickening of alveolar septa in lungs at 40 mg/kg, iv measured after 5 days; assay type: functional, organism-based; conditions: time 5.0 day
Staphylococcus aureus [6] = assay: Drug resistance against Staphylococcus aureus assessed as fold increase in MIC measured after 21 passages relative to control; assay type: functional
Pasteurella multocida = assay: Antibacterial activity against Pasteurella multocida CVCC 1659 assessed as bacterial growth inhibition incubated for 18 to 24 hrs by NCCLS based assay; assay type: functional; conditions: time 18-24 hrs
[7] = Cytotoxicity against HEK293T cells assessed as cell viability at 200 uM incubated for 6 hrs by CCK8 assay relative to control; assay type: toxicity, cell-based, HEK-293T; conditions: human, read-out: Activity
[8] = Toxicity in Wistar rat assessed as degeneration of alveolar epithelial cells in lungs at 2000 mg/kg, po measured for 14 days by H and E staining based analysis; assay type: organism-based; conditions: in vivo, 336 h, time 14 day
[9] = Cytotoxicity against human HepG2 cells assessed as cell viability incubated for 6 hrs by CCK8 assay; assay type: toxicity, cell-based
[10] = Toxicity in Wistar rat assessed as water consumption at 2000 mg/kg, po measured for 14 days; assay type: organism-based; conditions: in vivo, 336 h, time 14 day
Enterococcus faecalis = assay: Antibacterial activity against Enterococcus faecalis assessed as bacterial growth inhibition incubated for 18 to 24 hrs by NCCLS based assay; assay type: functional; conditions: time 18-24 hrs
Staphylococcus aureus [11] = assay: Antibacterial activity against methicillin-resistant Staphylococcus aureus infected in neutropenic Balb/c mouse model assessed as reduction in bacterial load in kidney at 40 mg/kg, iv measured after 5 days; assay type: functional, organism-based; conditions: time 5.0 day
[12] = Toxicity in Wistar rat assessed as piloerection at 2000 mg/kg, po measured for 24 hrs; assay type: organism-based; conditions: in vivo
[13] = Toxicity in Wistar rat assessed as absolute lungs weight at 2000 mg/kg, po measured after 14 days (reference value: 1.38 +/- 0.17 g); assay type: organism-based; conditions: in vivo, 336 h, time 14 day
Staphylococcus aureus [14] = assay: Antibacterial activity against methicillin-resistant Staphylococcus aureus infected in neutropenic Balb/c mouse model assessed as reduction in bacterial load in liver at 40 mg/kg, iv measured after 5 days; assay type: functional, organism-based; conditions: time 5.0 day
[15] = Toxicity in Wistar rat assessed as piloerection at 2000 mg/kg, po measured for 48 hrs; assay type: organism-based; conditions: in vivo
[16] = Cytotoxicity against HEK293T cells assessed as cell viability incubated for 6 hrs by CCK8 assay; assay type: toxicity, cell-based, HEK-293T; conditions: human
[17] = Toxicity in Wistar rat assessed as fatality at 2000 mg/kg, po measured for 7 days; assay type: organism-based; conditions: in vivo, 168 h, time 7 day
[18] = Toxicity in Wistar rat assessed as trembling at 2000 mg/kg, po measured for 48 hrs; assay type: organism-based; conditions: in vivo
Staphylococcus aureus [19] = assay: Antibacterial activity against Staphylococcus aureus assessed as reduction in bacterial count at 1 to 6 times MIC incubated for 24 hrs by time kill assay; assay type: functional
Staphylococcus aureus [20] = assay: Drug sensitivity against Staphylococcus aureus at 1/4 times MIC measured after 4 passages; assay type: functional, organism-based
[21] = Toxicity in Wistar rat assessed as absolute liver weight at 2000 mg/kg, po measured after 14 days (reference value: 10.02 +/- 0.44 g); assay type: organism-based; conditions: in vivo, 336 h, time 14 day
Staphylococcus aureus [22] = assay: Antibacterial activity against methicillin-resistant Staphylococcus aureus infected in neutropenic Balb/c mouse model assessed as thickening of alveolar walls in lungs at 40 mg/kg, iv measured after 5 days; assay type: functional, organism-based; conditions: time 5.0 day
[23] = Toxicity in Wistar rat assessed as relative liver weight at 2000 mg/kg, po measured after 14 days (reference value: 4.37 +/- 0.18 %); assay type: organism-based; conditions: in vivo, 336 h, time 14 day
[24] = Toxicity in Wistar rat assessed as capillary congestion in lungs at 2000 mg/kg, po measured for 14 days by H and E staining based analysis; assay type: organism-based; conditions: in vivo, 336 h, time 14 day
[25] = Toxicity in Wistar rat assessed as relative kidneys weight at 2000 mg/kg, po measured after 14 days (reference value: 0.91 +/- 0.18 %); assay type: organism-based; conditions: in vivo, 336 h, time 14 day
Streptococcus agalactiae = assay: Antibacterial activity against Streptococcus agalactiae assessed as bacterial growth inhibition incubated for 18 to 24 hrs by NCCLS based assay; assay type: functional; conditions: time 18-24 hrs
Staphylococcus aureus [26] = assay: Antibacterial activity against methicillin-resistant Staphylococcus aureus BNCC 337371 assessed as bacterial growth inhibition incubated for 18 to 24 hrs by NCCLS based assay; assay type: functional; conditions: time 18-24 hrs
Staphylococcus aureus [27] = assay: Antibacterial activity against methicillin-resistant Staphylococcus aureus infected in neutropenic Balb/c mouse model assessed as reduction in bacterial load in lungs at 15 mg/kg, iv measured after 5 days; assay type: functional; conditions: time 5 day
[28] = Toxicity in Wistar rat assessed as hepatocyte fatty degeneration at 2000 mg/kg, po measured for 14 days by H and E staining based analysis; assay type: organism-based; conditions: hepatocytes, 336 h, time 14 day
Escherichia coli = assay: Antibacterial activity against Escherichia coli CICC 10389 assessed as bacterial growth inhibition incubated for 18 to 24 hrs by NCCLS based assay; assay type: functional; conditions: time 18-24 hrs
[29] = Toxicity in Wistar rat assessed as proliferation of oval cells in liver at 2000 mg/kg, po measured for 14 days by H and E staining based analysis; assay type: organism-based; conditions: in vivo, 336 h, time 14 day
[30] = Toxicity in Wistar rat assessed as absolute kidneys weight at 2000 mg/kg, po measured after 14 days (reference value: 1.77 +/- 0.16 g); assay type: organism-based; conditions: in vivo, 336 h, time 14 day
[31] = Toxicity in Wistar rat assessed as relative uterus weight at 2000 mg/kg, po measured after 14 days (reference value: 0.45 +/- 0.03 %); assay type: organism-based; conditions: in vivo, 336 h, time 14 day
[32] = Toxicity in Wistar rat assessed as absolute spleen weight at 2000 mg/kg, po measured after 14 days (reference value: 0.61 +/- 0.05 g); assay type: organism-based; conditions: in vivo, 336 h, time 14 day
Staphylococcus aureus [33] = assay: Antibacterial activity against Staphylococcus aureus ATCC 25923 assessed as bacterial growth inhibition incubated for 18 to 24 hrs by NCCLS based assay; assay type: functional; conditions: time 18-24 hrs
[34] = Toxicity in Wistar rat assessed as vascular congestion in lungs at 2000 mg/kg, po measured for 14 days by H and E staining based analysis; assay type: organism-based; conditions: in vivo, 336 h, time 14 day
[35] = Toxicity in po-dosed Wistar rat measured for 14 days by H and E staining based analysis; conditions: in vivo, time 14 day
[36] = Toxicity in Wistar rat assessed as physical activity at 2000 mg/kg, po measured for 24 hrs; assay type: organism-based; conditions: in vivo
[37] = Toxicity in Wistar rat assessed as absolute heart weight at 2000 mg/kg, po measured after 14 days (reference value: 0.86 +/- 0.09 g); assay type: organism-based; conditions: in vivo, 336 h, time 14 day
Staphylococcus aureus [38] = assay: Antibacterial activity against methicillin-resistant Staphylococcus aureus ATCC 29213 assessed as reduction in bacterial count at 6 times MIC incubated for 24 hrs by time kill assay; assay type: functional

Question: For `C=C[C@]1(C)C[C@@H](OC(=O)CSc2ncnc(N(C)C)n2)[C@]2(C)[C@H](C)CC[C@]3(CCC(=O)[C@H]32)[C@@H](C)[C@@H]1O`, which Activity [1] is on record?
Answer: Its Activity is “Toxic”.

Question: And the Activity [2]?
Answer: The Activity was 0.68 g.

Question: What about the Activity [3] of the same compound?
Answer: The Activity was 0.26%.

Question: What about the Activity [4] of the same compound?
Answer: Its Activity is “Non-Toxic”.

Question: What about the Activity (Staphylococcus aureus [5]) of the same compound?
Answer: The Activity was “Active”.

Question: And the “fold change (FC)” value (Staphylococcus aureus [6])?
Answer: Its value is 16.

Question: And the MIC (Pasteurella multocida)?
Answer: The MIC was at least 64 µg/mL.

Question: And the viability at 6 h, 200 µM [7]?
Answer: Its viability at 6 h, 200 µM is 66.9%.

Question: What about the Activity [8] of the same compound?
Answer: The Activity was “Toxic”.

Question: And the CC50 at 6 h [9]?
Answer: Its CC50 at 6 h is 84.6 µM.

Question: And the Activity [10]?
Answer: Its Activity is “Toxic”.

Question: And the MIC (Enterococcus faecalis)?
Answer: The MIC was 32 µg/mL (≈ 61.9 µM).

Question: And the Activity (Staphylococcus aureus [11])?
Answer: Its Activity is “Active”.

Question: And the Activity [12]?
Answer: The Activity was “Toxic”.

Question: What about the Activity [13] of the same compound?
Answer: The Activity was 1.21 g.

Question: And the Activity (Staphylococcus aureus [14])?
Answer: Its Activity is “Active”.

Question: What about the Activity [15] of the same compound?
Answer: The Activity was “Non-Toxic”.

Question: What about the CC50 at 6 h [16] of the same compound?
Answer: Its CC50 at 6 h is 50.1 µM.

Question: What about the Activity [17] of the same compound?
Answer: Its Activity is “Non-Toxic”.

Question: And the Activity [18]?
Answer: The Activity was “Non-Toxic”.

Question: And the “log(activity)” value (Staphylococcus aureus [19])?
Answer: Its value is 2.5.

Question: And the Activity (Staphylococcus aureus [20])?
Answer: Its Activity is “Active”.

Question: What about the Activity [21] of the same compound?
Answer: The Activity was 9.09 g.

Question: And the Activity (Staphylococcus aureus [22])?
Answer: Its Activity is “Active”.

Question: What about the Activity [23] of the same compound?
Answer: Its Activity is 3.99%.

Question: What about the Activity [24] of the same compound?
Answer: Its Activity is “Toxic”.

Question: And the Activity [25]?
Answer: The Activity was 0.74%.

Question: What about the MIC (Streptococcus agalactiae) of the same compound?
Answer: Its MIC is 0.063 µg/mL (≈ 0.122 µM).

Question: And the MIC (Staphylococcus aureus [26])?
Answer: Its MIC is 0.031 µg/mL (≈ 0.06 µM).

Question: What about the Activity (Staphylococcus aureus [27]) of the same compound?
Answer: The Activity was 1.82 log10CFU/ml.

Question: What about the Activity [28] of the same compound?
Answer: Its Activity is “Toxic”.

Question: What about the MIC (Escherichia coli) of the same compound?
Answer: The MIC was at least 64 µg/mL.

Question: What about the Activity [29] of the same compound?
Answer: The Activity was “Toxic”.

Question: What about the Activity [30] of the same compound?
Answer: The Activity was 1.85 g.

Question: And the Activity [31]?
Answer: Its Activity is 0.29%.

Question: And the Activity [32]?
Answer: The Activity was 0.43 g.

Question: What about the MIC (Staphylococcus aureus [33]) of the same compound?
Answer: The MIC was 0.031 µg/mL (≈ 0.06 µM).

Question: And the Activity [34]?
Answer: Its Activity is “Toxic”.

Question: And the LD50 at 336 h [35]?
Answer: The LD50 at 336 h was over 2000 mg/kg.

Question: What about the Activity [36] of the same compound?
Answer: The Activity was “Toxic”.

Question: What about the Activity [37] of the same compound?
Answer: The Activity was 0.75 g.

Question: What about the “log(activity)” value (Staphylococcus aureus [38]) of the same compound?
Answer: Its value is 1.72.
